Laboratory results as given in PMC4459817, “Vasculotide reduces endothelial permeability and tumor cell extravasation in the absence of binding to or agonistic activation of Tie2” (EMBO Molecular Medicine, 2015).

Target: T1, mouse Tie2-Fc (mTie2-Fc) (Mus musculus, UniProt Q02858)
T1 construct: Purified human or mouse Tie2-Fc (i.e., Fc-conjugated extracellular domains of Tie2); purchased R&D Systems 762-T2-100
Assay: SPR binding to mouse Tie2-Fc
Conditions: mouse Tie2-Fc (low- and high-density), 37°C, pH 7.4, Supplementary Fig S3, listed as VT
Excerpt: To better understand the difficulties we had in observing Tie2 activation by VT, we sought to characterize the binding affinity and kinetics of VT to Tie2. Purified human or mouse Tie2-Fc (i.e., Fc-conjugated extracellular domains of Tie2) were first coupled to protein A sepharose beads for pull-down experiments (Fig9A and B) or immobilized on a Biacore CM5 sensor chip for surface plasmon resonance (SPR) experiments (Fig9C and Supplementary Fig S3). […]
9. Tie2 Receptor-Binding Assays
Vasculotide (VT) was manufactured by Bachem UK Ltd. T7c (CHHHRHSF) was synthesized by Genscript (Piscataway, NJ, USA). PEG-Cys consists of a single cysteine reacted to each of the 4 arms of PEG-maleimide (Sunbright PTE-100MA, NOF Corporation, Tokyo, Japan). BowAng1 (Ang1-Fd-Fc-Fd) was made and provided by Regeneron Pharmaceuticals, Inc. (Tarrytown, NY, USA). COMP-Ang1 was purified in the Kerbel lab from serum-free culture media conditioned by an engineered CHO cell line provided by Dr. Gou Young Koh (KAIST), according to published protocols (Hwang et al, 2008).
Recombinant human Angiopoietin-1 (rhAng1) and Vascular Endothelial Growth Factor ( rhVEGF) were […]
purchased from R&D Systems. […]
(structural/molecular weight control for VT), and 40 μL of supernatant (7% of residual/unbound ligand) – were similarly boiled in SDS sample buffer. […]
Binding analysis were performed by exposure of immobilized mTie2-Fc to the analytes diluted in HBS-EP (0.01M HEPES pH 7.4, 0.15M NaCl, 3mM EDTA, 0.005% v/v Tween-20), which was supplemented with 1mg/mL carboxymethyl dextran (NSB reducer, GE Healthcare) to reduce non-specific binding to the sensor chip. […] To quantitatively determine the kinetic properties of the interaction (KD, kd, ka) and avoid mass transport limitations, mTie2-Fc and hTie2-Fc were immobilized at low density (1,000-1,200RU) onto separate flow cells of the CM5 chip using amine coupling chemistry. […] All data were analysed using BIA Evaluation Software 2.0 (GE Healthcare) to calculate kd, ka and KD using the 1:1 ligand binding model. […]

T1 sequence (Q02858 23-746 limits assumed): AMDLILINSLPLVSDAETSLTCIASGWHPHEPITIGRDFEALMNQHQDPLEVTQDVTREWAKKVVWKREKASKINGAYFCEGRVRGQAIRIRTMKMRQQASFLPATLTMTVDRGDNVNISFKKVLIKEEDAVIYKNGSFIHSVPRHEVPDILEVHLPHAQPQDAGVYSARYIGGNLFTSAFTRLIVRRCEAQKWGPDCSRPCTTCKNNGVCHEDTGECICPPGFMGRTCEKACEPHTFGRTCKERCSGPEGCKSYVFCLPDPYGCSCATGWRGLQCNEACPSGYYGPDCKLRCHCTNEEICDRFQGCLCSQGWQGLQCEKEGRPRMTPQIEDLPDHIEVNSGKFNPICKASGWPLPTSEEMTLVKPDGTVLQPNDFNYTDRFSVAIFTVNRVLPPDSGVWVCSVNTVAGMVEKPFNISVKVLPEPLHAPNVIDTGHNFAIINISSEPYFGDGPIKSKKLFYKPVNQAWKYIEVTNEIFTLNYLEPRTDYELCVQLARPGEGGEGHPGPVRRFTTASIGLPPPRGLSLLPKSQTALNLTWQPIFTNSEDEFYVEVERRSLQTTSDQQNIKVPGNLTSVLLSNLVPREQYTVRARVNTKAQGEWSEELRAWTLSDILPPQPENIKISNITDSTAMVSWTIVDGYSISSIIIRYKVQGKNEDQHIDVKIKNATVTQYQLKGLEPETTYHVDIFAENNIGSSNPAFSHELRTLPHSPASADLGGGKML

CHHHRHSF [Vasculotide, 4-armed maleimide-functionalized polyethylene glycol (PEG) backbone to link together four cysteine-capped T7 peptides, that is, CHHHRHSF]
binding to Tie2-Fc: no binding to Tie2-Fc was detectable
